Results from ChEMBL document CHEMBL1201862, “PubChem BioAssay data set” (2004).
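Briefly, cells in 96-well plates were exposed to five compound concentrations for 48 h, and endpoints were estimated by linear interpolation. GI50 = concentration required for 50% inhibition of growth.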 The source made the active and inactive calls. Cut-off read from the data, not from the text of the source: active = GI50 up to about 1.1 µM and inactive = higher.

Key:
Test in all cases: NCI tumour cell line growth inhibition, 48 h
A549 = tested on: A549
CAKI-1 = tested on: CAKI-1
HCC 2998 = tested on: HCC 2998
HCT-116 = tested on: HCT-116
KM12 = tested on: KM12
MOLT-4 = tested on: MOLT-4
NCI-H23 = tested on: NCI-H23
NCI-H460 = tested on: NCI-H460
OVCAR-3 = tested on: OVCAR-3
OVCAR-4 = tested on: OVCAR-4
RPMI-8226 = tested on: RPMI-8226
SF-268 = tested on: SF-268
SK-MEL-28 = tested on: SK-MEL-28
SK-MEL-2 = tested on: SK-MEL-2
SR = tested on: SR
SW-620 = tested on: SW-620
UACC-257 = tested on: UACC-257
MCF7 = tested on: MCF7
PC-3 = tested on: PC-3

Row | Structure (SMILES) | GI50 (A549) | GI50 (CAKI-1) | GI50 (HCC 2998) | GI50 (HCT-116) | GI50 (KM12) | GI50 (MOLT-4) | GI50 (NCI-H23) | GI50 (NCI-H460) | GI50 (OVCAR-3) | GI50 (OVCAR-4) | GI50 (RPMI-8226) | GI50 (SF-268) | GI50 (SK-MEL-28) | GI50 (SK-MEL-2) | GI50 (SR) | GI50 (SW-620) | GI50 (UACC-257) | GI50 (MCF7) | GI50 (PC-3)
1 | Cc1cccc(NC(=O)C(=O)C2C(=O)NC(=O)NC2=O)c1C | > 100 µM (inactive) | > 100 µM (inactive) | > 100 µM (inactive) | > 100 µM (inactive) | > 100 µM (inactive) | > 100 µM (inactive) | > 100 µM (inactive) | > 100 µM (inactive) | > 100 µM (inactive) | > 100 µM (inactive) | > 100 µM (inactive) | > 100 µM (inactive) | > 100 µM (inactive) | > 100 µM (inactive) | > 100 µM (inactive) | > 100 µM (inactive) | > 100 µM (inactive) | – | –
2 | CCN(CC)CCNc1ccc(C)c2sc3ccc(O)cc3c(=O)c12 | < 0.0431 µM (active) | 5.73 µM (inactive) | 1.36 µM (inactive) | 1.15 µM (inactive) | 1.43 µM (inactive) | < 0.012 µM (active) | 1.2 µM (inactive) | < 0.0128 µM (active) | 2.15 µM (inactive) | 2.7 µM (inactive) | 1.05 µM (active) | 1.8 µM (inactive) | 1.49 µM (inactive) | 1.79 µM (inactive) | 0.0149 µM (active) | 0.582 µM (active) | 1.55 µM (inactive) | – | –
3 | Cc1ccccc1-c1c(N)nc(NC#N)nc1C(=O)Nc1ccccc1 | > 100 µM (inactive) | > 100 µM (inactive) | > 100 µM (inactive) | > 100 µM (inactive) | > 100 µM (inactive) | > 100 µM (inactive) | > 100 µM (inactive) | > 100 µM (inactive) | > 100 µM (inactive) | > 100 µM (inactive) | > 100 µM (inactive) | > 100 µM (inactive) | > 100 µM (inactive) | 32.1 µM (inactive) | > 100 µM (inactive) | > 100 µM (inactive) | > 100 µM (inactive) | – | –
4 | CS/C=C\C(=O)O[C@H]1C[C@@H]2[C@@H](O)c3occ(C)c3C[C@]2(C)[C@@H](C)C1 | – | 39.7 µM (inactive) | 29.2 µM (inactive) | 17.5 µM (inactive) | 91 µM (inactive) | 20.7 µM (inactive) | 30.3 µM (inactive) | 21.6 µM (inactive) | 16.4 µM (inactive) | 22.2 µM (inactive) | 30.4 µM (inactive) | 28 µM (inactive) | 19.8 µM (inactive) | – | 35.1 µM (inactive) | 33.3 µM (inactive) | 14.8 µM (inactive) | 31.9 µM (inactive) | 41.2 µM (inactive)
5 | CC(=O)OC12C=CC(=O)N1c1ccccc1C(=O)O2 (stereo not given) | > 100 µM (inactive) | > 100 µM (inactive) | > 100 µM (inactive) | > 100 µM (inactive) | > 100 µM (inactive) | > 100 µM (inactive) | > 100 µM (inactive) | > 100 µM (inactive) | > 100 µM (inactive) | > 100 µM (inactive) | > 100 µM (inactive) | > 100 µM (inactive) | > 100 µM (inactive) | > 100 µM (inactive) | > 100 µM (inactive) | > 100 µM (inactive) | > 100 µM (inactive) | – | –
6 | C=CCCC(C)N(C(=O)OC(C)(C)C)S(=O)(=O)c1ccc(C)cc1 (stereo not given) | > 100 µM (inactive) | > 100 µM (inactive) | > 100 µM (inactive) | > 100 µM (inactive) | > 100 µM (inactive) | 97.1 µM (inactive) | > 100 µM (inactive) | > 100 µM (inactive) | > 100 µM (inactive) | > 100 µM (inactive) | > 100 µM (inactive) | > 100 µM (inactive) | > 100 µM (inactive) | > 100 µM (inactive) | > 100 µM (inactive) | > 100 µM (inactive) | > 100 µM (inactive) | – | –
7 | CCOC(=O)CCC(NC(=O)c1ccc(NCc2ccc3nc(-c4ccccc4)c(Cl)nc3c2)cc1)C(=O)OCC (stereo not given) | 47.8 µM (inactive) | 30.6 µM (inactive) | 92.3 µM (inactive) | 40.7 µM (inactive) | > 100 µM (inactive) | 9.25 µM (inactive) | 79.8 µM (inactive) | 27.7 µM (inactive) | 17.2 µM (inactive) | 20.9 µM (inactive) | 18.2 µM (inactive) | 53.8 µM (inactive) | > 10 µM (inactive) | 10.6 µM (inactive) | 13.5 µM (inactive) | > 100 µM (inactive) | – | – | –
8 | NC(=O)C(=O)N/N=C(\CC1(O)C(=O)Nc2ccccc21)c1ccc2ccccc2c1 (stereo not given) | 20.7 µM (inactive) | 35.2 µM (inactive) | 41.5 µM (inactive) | 9.48 µM (inactive) | 21.7 µM (inactive) | 20.9 µM (inactive) | 29.6 µM (inactive) | 34 µM (inactive) | 25.8 µM (inactive) | 37.1 µM (inactive) | 34.4 µM (inactive) | 40.9 µM (inactive) | 26.9 µM (inactive) | 22.1 µM (inactive) | 18.2 µM (inactive) | 33.5 µM (inactive) | 28.5 µM (inactive) | – | –
9 | COc1ccc(C2C=C(c3ccccc3)Nc3nnnn32)cc1 (stereo not given) | 41.3 µM (inactive) | 54 µM (inactive) | – | 13.5 µM (inactive) | 15.8 µM (inactive) | > 100 µM (inactive) | > 100 µM (inactive) | 45 µM (inactive) | 24.9 µM (inactive) | – | 51.9 µM (inactive) | 44.9 µM (inactive) | – | 38.7 µM (inactive) | 26.4 µM (inactive) | 37.3 µM (inactive) | 98.4 µM (inactive) | 20.2 µM (inactive) | 49 µM (inactive)
10 | CC1OC(=O)C(O)=C1O (stereo not given) | > 100 µM (inactive) | > 100 µM (inactive) | > 100 µM (inactive) | > 100 µM (inactive) | > 100 µM (inactive) | > 100 µM (inactive) | > 100 µM (inactive) | > 100 µM (inactive) | > 100 µM (inactive) | > 100 µM (inactive) | > 100 µM (inactive) | 47.2 µM (inactive) | – | > 100 µM (inactive) | > 100 µM (inactive) | > 100 µM (inactive) | > 100 µM (inactive) | – | –
11 | COc1ccc(NC(=O)CC(=O)N/N=C/c2ccc(N(CCC#N)S(C)(=O)=O)cc2)cc1 | > 100 µM (inactive) | > 100 µM (inactive) | > 100 µM (inactive) | > 100 µM (inactive) | > 100 µM (inactive) | > 100 µM (inactive) | > 100 µM (inactive) | > 100 µM (inactive) | > 100 µM (inactive) | > 100 µM (inactive) | > 100 µM (inactive) | > 100 µM (inactive) | > 100 µM (inactive) | > 100 µM (inactive) | 3.33 µM (inactive) | > 100 µM (inactive) | – | – | –
12 | CN1N=C(c2ccncc2)OC1c1ccc(Cl)cc1Cl (stereo not given) | > 100 µM (inactive) | – | > 100 µM (inactive) | 93.1 µM (inactive) | > 100 µM (inactive) | 42 µM (inactive) | > 100 µM (inactive) | > 100 µM (inactive) | 64.3 µM (inactive) | 43.6 µM (inactive) | 72.8 µM (inactive) | > 100 µM (inactive) | > 100 µM (inactive) | > 100 µM (inactive) | – | > 100 µM (inactive) | > 100 µM (inactive) | > 100 µM (inactive) | 63.1 µM (inactive)
